Data from the kinase profiling compilation of Christmann-Franck et al. (2016).
Values belong to the compound of their own block, whether it stands above or below them.

Experiments:
Assay in all cases: KINOMEscan competition binding
[1] = tested on: EIF2AK4 KD2 (human), Q9P2K8 [S808G]; details: compound 10.0 µM
[2] = target: CLK2 (human) (UniProt P49760); details: for kinase still bound, per cent of control: compound 10.0 µM
[3] = target: RIPK4 (human) (UniProt P57078); details: compound 10.0 µM
RIPK4 (human), sequence (P57078 whole entry, looked up): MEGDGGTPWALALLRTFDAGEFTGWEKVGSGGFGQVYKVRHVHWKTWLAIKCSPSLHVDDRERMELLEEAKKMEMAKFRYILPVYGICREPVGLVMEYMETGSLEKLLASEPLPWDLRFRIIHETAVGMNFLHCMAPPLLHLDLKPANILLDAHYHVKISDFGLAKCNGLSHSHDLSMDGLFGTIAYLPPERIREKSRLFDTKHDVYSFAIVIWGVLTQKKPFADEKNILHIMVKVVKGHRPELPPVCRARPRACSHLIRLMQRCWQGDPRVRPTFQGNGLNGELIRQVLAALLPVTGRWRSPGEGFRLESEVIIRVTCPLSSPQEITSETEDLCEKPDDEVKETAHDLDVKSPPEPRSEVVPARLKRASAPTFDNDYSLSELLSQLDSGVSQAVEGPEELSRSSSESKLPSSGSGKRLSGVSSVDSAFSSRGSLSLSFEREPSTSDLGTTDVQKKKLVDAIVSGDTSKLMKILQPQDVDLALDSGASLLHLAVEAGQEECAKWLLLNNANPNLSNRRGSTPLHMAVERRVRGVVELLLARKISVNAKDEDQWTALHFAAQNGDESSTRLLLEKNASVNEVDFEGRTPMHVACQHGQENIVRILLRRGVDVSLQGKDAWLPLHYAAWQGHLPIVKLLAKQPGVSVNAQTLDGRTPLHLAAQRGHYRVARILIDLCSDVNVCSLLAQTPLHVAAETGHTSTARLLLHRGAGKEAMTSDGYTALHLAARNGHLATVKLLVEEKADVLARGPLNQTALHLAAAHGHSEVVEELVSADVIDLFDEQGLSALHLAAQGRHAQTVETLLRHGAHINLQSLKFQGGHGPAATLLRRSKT

[4] = target: PIM1 (human) (UniProt P11309); details: for kinase still bound, per cent of control: compound 10.0 µM
PIM1 (human), sequence (P11309 whole entry, looked up): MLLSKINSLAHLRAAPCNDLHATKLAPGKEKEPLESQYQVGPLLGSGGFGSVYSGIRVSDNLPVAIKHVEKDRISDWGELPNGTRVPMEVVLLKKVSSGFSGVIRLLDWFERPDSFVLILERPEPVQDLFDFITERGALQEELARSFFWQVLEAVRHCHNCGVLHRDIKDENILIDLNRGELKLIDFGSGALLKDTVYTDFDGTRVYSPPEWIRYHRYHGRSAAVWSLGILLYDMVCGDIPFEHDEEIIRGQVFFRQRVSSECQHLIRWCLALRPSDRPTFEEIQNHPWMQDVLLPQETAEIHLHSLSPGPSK

[5] = target: STK17B (human) (UniProt O94768); details: for kinase still bound, per cent of control: compound 10.0 µM
[6] = target: CDK17 (human) (UniProt Q00537); details: compound 10.0 µM
[7] = target: DAPK1 (human) (UniProt P53355); details: for kinase still bound, per cent of control: compound 10.0 µM
DAPK1 (human), sequence (P53355 whole entry, looked up): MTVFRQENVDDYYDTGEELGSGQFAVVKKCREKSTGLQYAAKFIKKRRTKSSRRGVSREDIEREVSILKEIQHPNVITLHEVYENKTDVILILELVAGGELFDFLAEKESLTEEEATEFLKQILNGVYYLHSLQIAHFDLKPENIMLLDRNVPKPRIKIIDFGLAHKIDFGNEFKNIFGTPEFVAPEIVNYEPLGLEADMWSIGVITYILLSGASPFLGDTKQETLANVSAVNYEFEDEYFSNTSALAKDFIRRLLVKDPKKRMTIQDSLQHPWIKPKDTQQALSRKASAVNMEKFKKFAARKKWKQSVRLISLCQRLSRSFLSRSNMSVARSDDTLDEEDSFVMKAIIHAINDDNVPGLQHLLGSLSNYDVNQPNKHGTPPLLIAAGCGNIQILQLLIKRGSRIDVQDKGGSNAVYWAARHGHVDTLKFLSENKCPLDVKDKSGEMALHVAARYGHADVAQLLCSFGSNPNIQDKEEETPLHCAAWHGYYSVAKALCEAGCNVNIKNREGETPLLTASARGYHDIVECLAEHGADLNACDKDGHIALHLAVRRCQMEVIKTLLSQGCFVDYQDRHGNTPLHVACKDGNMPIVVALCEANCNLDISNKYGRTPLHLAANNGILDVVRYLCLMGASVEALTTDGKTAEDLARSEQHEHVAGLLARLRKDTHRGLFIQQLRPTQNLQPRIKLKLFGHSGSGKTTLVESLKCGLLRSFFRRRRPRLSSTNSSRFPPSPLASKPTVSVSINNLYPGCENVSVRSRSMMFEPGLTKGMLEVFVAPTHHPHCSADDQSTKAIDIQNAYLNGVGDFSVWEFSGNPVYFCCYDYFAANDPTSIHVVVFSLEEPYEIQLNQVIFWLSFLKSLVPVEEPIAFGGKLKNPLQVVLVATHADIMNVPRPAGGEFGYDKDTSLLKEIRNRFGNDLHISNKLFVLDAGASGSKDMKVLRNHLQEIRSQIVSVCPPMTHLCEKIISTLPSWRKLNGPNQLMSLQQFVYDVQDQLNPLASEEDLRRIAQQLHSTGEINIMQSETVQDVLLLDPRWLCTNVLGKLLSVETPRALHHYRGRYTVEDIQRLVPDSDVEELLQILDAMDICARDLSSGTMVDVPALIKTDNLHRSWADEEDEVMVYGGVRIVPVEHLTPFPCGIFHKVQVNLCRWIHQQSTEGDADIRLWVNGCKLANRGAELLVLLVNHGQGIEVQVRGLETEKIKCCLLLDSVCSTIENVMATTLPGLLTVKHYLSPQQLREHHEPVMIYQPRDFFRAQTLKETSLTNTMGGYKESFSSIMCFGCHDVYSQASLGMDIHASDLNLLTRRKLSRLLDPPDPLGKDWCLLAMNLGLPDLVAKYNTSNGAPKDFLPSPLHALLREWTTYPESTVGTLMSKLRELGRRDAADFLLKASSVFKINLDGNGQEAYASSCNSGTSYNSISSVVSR

[8] = target: MYLK3 (human) (UniProt Q32MK0); details: compound 10.0 µM
[9] = target: DMPK (human) (UniProt Q09013); details: compound 10.0 µM
[10] = target: PIM3 (human) (UniProt Q86V86); details: for kinase still bound, per cent of control: compound 10.0 µM
[11] = target: CDK2 (human) (UniProt P24941); details: compound 10.0 µM
[12] = target: CSNK2A2 (human) (UniProt P19784); details: for kinase still bound, per cent of control: compound 10.0 µM
[13] = target: PIM2 (human) (UniProt Q9P1W9); details: compound 10.0 µM
[14] = target: CDK5 (human) (UniProt Q00535); details: compound 10.0 µM
CDK5 (human), sequence (Q00535 whole entry, looked up): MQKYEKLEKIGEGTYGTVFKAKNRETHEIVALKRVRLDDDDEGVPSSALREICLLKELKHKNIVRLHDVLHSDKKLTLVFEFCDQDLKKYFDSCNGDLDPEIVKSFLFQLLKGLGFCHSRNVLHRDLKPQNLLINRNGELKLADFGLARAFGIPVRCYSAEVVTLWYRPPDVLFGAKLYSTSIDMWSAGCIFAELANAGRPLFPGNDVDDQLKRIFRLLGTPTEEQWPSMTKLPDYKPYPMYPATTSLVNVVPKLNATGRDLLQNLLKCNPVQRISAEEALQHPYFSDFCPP

[15] = target: PKN2 (human) (UniProt Q16513); details: compound 10.0 µM
[16] = target: CIT (human) (UniProt O14578); details: compound 10.0 µM
[17] = target: BMX (human) (UniProt P51813); details: compound 10.0 µM
[18] = target: MAP3K7 (human) (UniProt O43318); details: compound 10.0 µM
[19] = target: PHKG2 (human) (UniProt P15735); details: compound 10.0 µM
[20] = target: AURKC (human) (UniProt Q9UQB9); details: compound 10.0 µM
[21] = target: ITK (human) (UniProt Q08881); details: compound 10.0 µM
[22] = target: MAP3K12 (human) (UniProt Q12852); details: compound 10.0 µM
[23] = target: ACVRL1 (human) (UniProt P37023); details: compound 10.0 µM
[24] = target: CSNK1A1L (human) (UniProt Q8N752); details: compound 10.0 µM
[25] = target: MAP2K3 (human) (UniProt P46734); details: compound 10.0 µM
[26] = target: LYN (human) (UniProt P07948); details: compound 10.0 µM
[27] = target: PLK1 (human) (UniProt P53350); details: compound 10.0 µM
[28] = target: MELK (human) (UniProt Q14680); details: compound 10.0 µM
[29] = target: MARK3 (human) (UniProt P27448); details: compound 10.0 µM
[30] = target: AURKB (human) (UniProt Q96GD4); details: compound 10.0 µM
[31] = target: ADCK4 (human) (UniProt Q96D53); details: compound 10.0 µM
[32] = target: WEE1 (human) (UniProt P30291); details: compound 10.0 µM
[33] = target: PIP5K1A (human) (UniProt Q99755); details: compound 10.0 µM
[34] = target: CAMK1D (human) (UniProt Q8IU85); details: compound 10.0 µM
[35] = target: PAK4 (human) (UniProt O96013); details: compound 10.0 µM
[36] = target: FGFR3 (human) (UniProt P22607); details: compound 10.0 µM
[37] = tested on: EGFR (human), P00533 [G719C; 746-750 del]; details: compound 10.0 µM
[38] = target: PDGFRA (human) (UniProt P16234); details: compound 10.0 µM
[39] = target: ERBB4 (human) (UniProt Q15303); details: compound 10.0 µM
[40] = target: SRPK3 (human) (UniProt Q9UPE1); details: compound 10.0 µM
SRPK3 (human), sequence (Q9UPE1 whole entry, looked up): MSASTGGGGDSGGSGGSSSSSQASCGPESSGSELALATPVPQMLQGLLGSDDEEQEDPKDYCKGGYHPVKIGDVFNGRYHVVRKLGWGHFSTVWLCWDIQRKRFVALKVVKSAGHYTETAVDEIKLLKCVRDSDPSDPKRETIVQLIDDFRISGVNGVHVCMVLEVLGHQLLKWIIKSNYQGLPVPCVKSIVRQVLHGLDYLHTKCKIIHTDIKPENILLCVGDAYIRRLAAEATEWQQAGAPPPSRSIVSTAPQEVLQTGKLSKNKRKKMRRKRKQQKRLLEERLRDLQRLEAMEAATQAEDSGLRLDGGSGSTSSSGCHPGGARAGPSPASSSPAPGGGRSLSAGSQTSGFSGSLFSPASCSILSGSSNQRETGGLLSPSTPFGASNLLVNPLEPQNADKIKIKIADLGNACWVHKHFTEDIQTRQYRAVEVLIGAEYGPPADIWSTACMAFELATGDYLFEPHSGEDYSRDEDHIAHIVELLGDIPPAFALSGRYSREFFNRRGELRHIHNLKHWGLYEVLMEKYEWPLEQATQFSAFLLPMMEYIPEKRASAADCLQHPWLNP

[41] = target: DDR2 (human) (UniProt Q16832); details: compound 10.0 µM
[42] = target: PRKAA1 (human) (UniProt Q13131); details: compound 10.0 µM

EIF2AK4 KD2 (human), Q9P2K8 [S808G], sequence (Q9P2K8 whole entry S808G, looked up): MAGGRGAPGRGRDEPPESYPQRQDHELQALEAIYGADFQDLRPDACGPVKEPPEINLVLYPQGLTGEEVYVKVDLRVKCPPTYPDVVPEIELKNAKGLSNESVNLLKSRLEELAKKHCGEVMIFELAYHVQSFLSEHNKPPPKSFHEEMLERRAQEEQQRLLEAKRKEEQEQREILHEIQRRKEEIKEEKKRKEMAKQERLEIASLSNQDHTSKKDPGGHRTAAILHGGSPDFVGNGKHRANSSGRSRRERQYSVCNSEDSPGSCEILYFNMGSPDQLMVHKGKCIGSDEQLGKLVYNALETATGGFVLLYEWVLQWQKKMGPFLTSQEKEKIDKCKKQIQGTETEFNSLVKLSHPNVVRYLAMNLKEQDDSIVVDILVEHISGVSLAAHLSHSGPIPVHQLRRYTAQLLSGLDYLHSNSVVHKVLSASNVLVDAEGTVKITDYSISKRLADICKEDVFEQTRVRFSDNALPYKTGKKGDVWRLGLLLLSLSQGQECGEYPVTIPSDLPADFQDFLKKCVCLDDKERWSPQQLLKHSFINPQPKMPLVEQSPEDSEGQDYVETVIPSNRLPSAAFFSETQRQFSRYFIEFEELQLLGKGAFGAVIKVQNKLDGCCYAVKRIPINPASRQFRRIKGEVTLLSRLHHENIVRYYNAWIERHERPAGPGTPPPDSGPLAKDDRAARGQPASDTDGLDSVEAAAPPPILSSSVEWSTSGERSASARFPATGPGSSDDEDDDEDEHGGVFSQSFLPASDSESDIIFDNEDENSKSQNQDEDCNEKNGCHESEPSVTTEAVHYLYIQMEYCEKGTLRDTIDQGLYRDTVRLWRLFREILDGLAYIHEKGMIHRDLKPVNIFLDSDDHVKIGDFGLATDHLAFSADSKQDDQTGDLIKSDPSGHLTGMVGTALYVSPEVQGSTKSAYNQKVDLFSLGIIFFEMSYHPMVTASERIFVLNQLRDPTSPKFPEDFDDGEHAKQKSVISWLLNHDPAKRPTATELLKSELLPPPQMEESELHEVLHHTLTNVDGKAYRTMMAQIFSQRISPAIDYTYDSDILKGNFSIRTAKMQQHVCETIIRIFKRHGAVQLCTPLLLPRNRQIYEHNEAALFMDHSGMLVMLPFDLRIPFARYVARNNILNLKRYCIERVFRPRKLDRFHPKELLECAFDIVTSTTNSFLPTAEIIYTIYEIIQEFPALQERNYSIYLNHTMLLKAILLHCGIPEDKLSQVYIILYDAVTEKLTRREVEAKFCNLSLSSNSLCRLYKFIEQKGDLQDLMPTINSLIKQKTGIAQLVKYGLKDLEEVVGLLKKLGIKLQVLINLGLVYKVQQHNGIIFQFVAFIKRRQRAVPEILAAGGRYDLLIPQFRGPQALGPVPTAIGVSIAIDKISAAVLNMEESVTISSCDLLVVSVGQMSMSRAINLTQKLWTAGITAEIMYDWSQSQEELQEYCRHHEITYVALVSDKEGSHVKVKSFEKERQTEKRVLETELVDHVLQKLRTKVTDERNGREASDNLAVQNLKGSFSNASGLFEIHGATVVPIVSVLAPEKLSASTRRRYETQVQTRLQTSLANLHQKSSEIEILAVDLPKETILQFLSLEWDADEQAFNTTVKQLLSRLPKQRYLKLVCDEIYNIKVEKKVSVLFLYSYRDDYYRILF

kinase still bound, per cent of control [1]: 16% | kinase still bound, per cent of control [2]: 19% | kinase still bound, per cent of control [3]: 7.9% | kinase still bound, per cent of control [4]: 3% | kinase still bound, per cent of control [5]: 1.5% | kinase still bound, per cent of control [6]: 28% | kinase still bound, per cent of control [7]: 9.7% | kinase still bound, per cent of control [8]: 22% | kinase still bound, per cent of control [9]: 14% | kinase still bound, per cent of control [10]: 5.4% | kinase still bound, per cent of control [11]: 19% | kinase still bound, per cent of control [12]: 6.7% | kinase still bound, per cent of control [13]: 0.8% | kinase still bound, per cent of control [14]: 27% | kinase still bound, per cent of control [15]: 31% | kinase still bound, per cent of control [16]: 19%
Compound: N=C1NC(=O)/C(=C/c2ccc(-c3ccc(C(N)=O)cc3O)o2)S1

kinase still bound, per cent of control [17]: 89% | kinase still bound, per cent of control [18]: 58% | kinase still bound, per cent of control [19]: 100% | kinase still bound, per cent of control [20]: 22% | kinase still bound, per cent of control [21]: 96% | kinase still bound, per cent of control [22]: 85% | kinase still bound, per cent of control [23]: 100% | kinase still bound, per cent of control [1]: 98% | kinase still bound, per cent of control [24]: 98% | kinase still bound, per cent of control [2]: 100% | kinase still bound, per cent of control [25]: 84% | kinase still bound, per cent of control [3]: 61% | kinase still bound, per cent of control [4]: 91% | kinase still bound, per cent of control [5]: 79% | kinase still bound, per cent of control [26]: 80% | kinase still bound, per cent of control [27]: 50% | kinase still bound, per cent of control [28]: 100% | kinase still bound, per cent of control [29]: 60% | kinase still bound, per cent of control [30]: 1.4% | kinase still bound, per cent of control [6]: 90% | kinase still bound, per cent of control [7]: 98% | kinase still bound, per cent of control [31]: 78% | kinase still bound, per cent of control [8]: 100% | kinase still bound, per cent of control [9]: 100% | kinase still bound, per cent of control [32]: 100% | kinase still bound, per cent of control [33]: 100% | kinase still bound, per cent of control [34]: 98% | kinase still bound, per cent of control [35]: 97% | kinase still bound, per cent of control [10]: 100% | kinase still bound, per cent of control [36]: 62% | kinase still bound, per cent of control [37]: 100% | kinase still bound, per cent of control [11]: 91% | kinase still bound, per cent of control [12]: 58% | kinase still bound, per cent of control [13]: 100% | kinase still bound, per cent of control [38]: 100% | kinase still bound, per cent of control [39]: 100% | kinase still bound, per cent of control [40]: 84% | kinase still bound, per cent of control [41]: 96% | kinase still bound, per cent of control [14]: 100% | kinase still bound, per cent of control [42]: 17% | kinase still bound, per cent of control [15]: 92% | kinase still bound, per cent of control [16]: 95%
Compound: CN1C(=O)c2ccccc2N(C)c2nc(Nc3ccc(N4CCC(O)CC4)cc3)ncc21

kinase still bound, per cent of control [18]: 3.4% | kinase still bound, per cent of control [20]: 16% | kinase still bound, per cent of control [23]: 3.6% | kinase still bound, per cent of control [24]: 21% | kinase still bound, per cent of control [25]: 16% | kinase still bound, per cent of control [3]: 5.8% | kinase still bound, per cent of control [5]: 5.4% | kinase still bound, per cent of control [30]: 24% | kinase still bound, per cent of control [8]: 19% | kinase still bound, per cent of control [9]: 22% | kinase still bound, per cent of control [40]: 34% | kinase still bound, per cent of control [16]: 0.8%
Compound: CS(=O)(=O)Nc1ccc(-c2cncc(/C=C3\SC(=N)NC3=O)c2)cc1

kinase still bound, per cent of control [17]: 94% | kinase still bound, per cent of control [18]: 91% | kinase still bound, per cent of control [19]: 6.6% | kinase still bound, per cent of control [20]: 57% | kinase still bound, per cent of control [21]: 89% | kinase still bound, per cent of control [22]: 76% | kinase still bound, per cent of control [23]: 100% | kinase still bound, per cent of control [1]: 2.6% | kinase still bound, per cent of control [24]: 100% | Kd [2]: 0.15 µM | kinase still bound, per cent of control [2]: 0% | kinase still bound, per cent of control [25]: 65% | kinase still bound, per cent of control [3]: 100% | Kd [4]: 0.037 µM | kinase still bound, per cent of control [4]: 0.95% | Kd [5]: 0.13 µM | kinase still bound, per cent of control [5]: 0.15% | kinase still bound, per cent of control [26]: 77% | kinase still bound, per cent of control [27]: 46% | kinase still bound, per cent of control [28]: 24% | kinase still bound, per cent of control [29]: 100% | kinase still bound, per cent of control [30]: 71% | kinase still bound, per cent of control [6]: 85% | Kd [7]: 0.0095 µM | kinase still bound, per cent of control [7]: 0.35% | kinase still bound, per cent of control [31]: 80% | kinase still bound, per cent of control [8]: 2.6% | kinase still bound, per cent of control [9]: 3.6% | kinase still bound, per cent of control [32]: 91% | kinase still bound, per cent of control [33]: 28% | kinase still bound, per cent of control [34]: 48% | kinase still bound, per cent of control [35]: 98% | Kd [10]: 0.0037 µM | kinase still bound, per cent of control [10]: 0.65% | kinase still bound, per cent of control [36]: 84% | kinase still bound, per cent of control [37]: 95% | kinase still bound, per cent of control [11]: 73% | Kd [12]: 0.0061 µM | kinase still bound, per cent of control [12]: 0% | kinase still bound, per cent of control [13]: 1.1% | kinase still bound, per cent of control [38]: 99% | kinase still bound, per cent of control [39]: 68% | kinase still bound, per cent of control [40]: 6% | kinase still bound, per cent of control [41]: 100% | kinase still bound, per cent of control [14]: 100% | kinase still bound, per cent of control [42]: 59% | kinase still bound, per cent of control [15]: 41% | kinase still bound, per cent of control [16]: 37%
Compound: O=C1NC(=O)/C(=C/c2c[nH]c(=O)c(-c3ccc(N4CCNCC4)nc3)c2)S1
